In patent US12551543B2, “Vaccine compositions comprising C—C motif chemokine 22 (CCL22) or fragments thereof” (IO BIOTECH APS, priority 2015, dated 2026):
“Also recorded” adds a separate entry of the source. Where two headings read alike, the source gives them in different places.

How the values were obtained:
C57BL/6 mice = assay: Murine CCL22 peptide vaccination, IFNγ ELISPOT on splenocytes; format: in vivo; settings: 100 μg peptide s.c. in IFA/PBS once a week for 3 weeks
Experimental: Murine CCL22 peptide (TAG Copenhagen, Denmark) stocks of 10 mM (mCCL22Short) and 5 mM (mCCL22Long) were made in DMSO. Mice were vaccinated subcutaneously (s.c) on the lower back with 100 μg peptide in 1:1 (vol/vol) IFA/PBS emulsion in a total volume of 100 μl. Mice were vaccinated once a week for 3 weeks and sacrificed one week after the last vaccination.
Spleens from sacrificed mice were removed and smashed through a cell strainer ([…]) and washed with R10 media: RPMI 1640 (Gibco® by Life technologies™) with 10% FCS (Gibco® by Life technologies™). Red blood cells lysed by adding red blood cell lysis buffer for 2 min, followed by two washes with R10 with 10% fetal bovine serum.
ELISPOT was performed as described by the manufacturer's instruction. In short, 96-well MSIPN4W ELISPOT plate (Millipore) were coated with mouse IFNγ-specific capture Ab (AN18: Mabtech) in a concentration of 12 μg/ml in PBS overnight at 4° C., 8×10^5 or 4×10^5 splenocyteslwell were seeded in the plate in triplicates. To investigate IFNγ response to murine CCL22 peptides, cells were incubated with different peptides (5 μM) or R10 as control for 18-20 h at 37° C. ELISPOT was developed with mouse IFNγ-specific detection Ab (R4-6A2-biotin; Mabtech) in a concentration of 1 μg/ml in Buffer (PBS, 0.5% BSA and NaN3) for 2 h at room temperature, followed by 6 washes in PBS. […]

T2 cells = assay: 51Cr-release cytotoxicity assay, peptide-pulsed T2 cells; format: cell-based; settings: for T-cell avidity of pCCL223-12-specific T cells, peptide titration: effector to target ratio 3:1
Experimental: (§1) Conventional ^51Cr-release assays for CTL-mediated cytotoxicity were carried out as described elsewhere (Andersen et al., 1999). Target cells were T2-cells (ATCC), HLA-A2^+ EBV transformed B-cell line (RPM16666), AML cells (UKE-1 and THP1) colon cancer cells (SW480), melanoma cell line (FM55-M2), Breast cancer cells MDA-MB231 with or without IFN-γ (100 U/m1) addition for 2 days prior to performing cytotoxicity assay. For peptide titration cytotoxicity assay, T2 cells were used as target cells and a constant effector to target ratio of 3:1 was used for all peptide concentrations.

[1] = test system: CCL22-specific T cell cultures; assay: Intracellular staining for IFNγ and TNFα after peptide stimulation; format: cell-based, human
Experimental: (§2) The following day IL-7 and IL-12 (PeproTech, London, UK) were added. […] The day after peptide stimulation IL-2 (PeproTech, London, UK) was added. 4 DC stimulations and 1 PBMC stimulation were made in total.
The cells were then stained for surface markers, then washed and permeabilized by using Fixation/Permeabilization and Permeabilization Buffer (eBioscience), according to manufacturer's instructions. Antibodies used: IFNγ-PE-Cy7, TNFa-APC, CD4-PerCP, CD8− FITC (all from BD Biosciences). Dead cells were stained using LIVE/DEAD® Fixable Near-IR Dead Cell Stain Kit according to manufacturer's instructions.

CCL22 [2] = assay: CCL22 ELISA of PBMC supernatants after peptide stimulation; format: cell-based, human
Experimental: Cell culture supernatants from PBMC, cancer cell lines and ascites cell cultures as well as siRNA transfected THP-1 cells were analyzed using Human CCL22/MDC DuoSet ELISA kit (R&D Systems) according to manufacturer's instructions.
(§3) PBMCs from healthy donors or cancer patients were thawed and rested for 4 hours in X-VIVO 15™ (Lonza) before being set up into 24-well plates with 2×10^6 cells/well in X-Vivo medium with 5% human serum. […] Appropriate amount of DMSO was added to HIV control wells to control for the solvent of pCCL223-12 peptide. The following day, IL-2 was added to a final concentration of 120 U/ml (360 U for ascites cells stimulation). Supernatant samples were collected after 2 or 7 days of culture. Cells were stimulated twice before being tested in ELISPOT assay.

K562-A2 cells = assay: 51Cr-release assay, HLA-A2-transfected K562 cells pulsed with peptide; format: cell-based
HLA-negative K562 cells = assay: 51Cr-release assay, non-transfected K562 cells pulsed with peptide; format: cell-based
Experimental: as §1, with “assay.” for “assay. For peptide titration cytotoxicity assay, T2 cells were used as target cells and a constant effector to target ratio of 3:1 was used for all peptide concentrations.”

CCL22 [3] = assay: CCL22 ELISA of ovarian cancer ascites cell supernatants after peptide stimulation; format: cell-based, human; settings: ascites cells from ovarian cancer patients, IL-2, compared to HIV peptide
Experimental: Peripheral Blood Mononuclear Cells (PBMC) were collected from healthy individuals and cancer patients (melanoma, renal cell carcinoma and breast cancer patients). Blood samples were drawn a minimum of four weeks after termination of any kind of anti-cancer therapy. PBMC were isolated using Lymphoprep™ separation, HLA-typed and frozen in FCS with 10% DMSO. Fresh ovarian ascites was filtered with a 70 μm filter and the cells were isolated by centrifugation (1500 […], 5 min). If the ascites contained a high abundance of erythrocytes, they were removed by adding lysis-buffer (Ortho-Mune Lysing Solution) to the cells with incubation of 3-5 min. The lysis-buffer was quickly washed away and the cells cryopreserved in human serum with 10% DMSO at −140 degrees until use. The protocol was approved by the Scientific Ethics Committee for The Capital Region of Denmark and conducted in accordance with the provisions of the Declaration of Helsinki. Written informed consent from the patients was obtained before study entry.
Cell culture supernatants from PBMC, cancer cell lines and ascites cell cultures as well as siRNA transfected THP-1 cells were analyzed using Human CCL22/MDC DuoSet ELISA kit (R&D Systems) according to manufacturer's instructions. […]

PBMCs = assay: Cytokine expression LUMINEX of PBMC supernatants after peptide stimulation; format: cell-based, human
Experimental: as §3, with “assay. Cell culture supernatants from PBMCs or ascites cells stimulated with CCL22-3 or HIV peptide were analyzed for IFN-γ, TNF-α, IL-6, IL-10 and 1 L-1β using Bio-Plex Pro™ Human Chemokine assays from Bio-Rad. […] Wilcoxon-signed rank test was used for statistical analysis of IL-10 expression due to multiple zero values.” for “assay.”

[4] = test system: PBMCs from cancer patients and healthy donors; assay: IFNγ ELISPOT on PBMCs; format: cell-based, human
Experimental: In the present study the ELISPOT was performed according to the guidelines provided by CIP (http://cimt.eu/cimt/files/dl/cip guidelines.pdf). The ELISPOT assay was used to quantify peptide epitope specific effector cells that release cytokines (IFNγ, TNFα, IL-17A or IL-10) as described previously (Sorensen et al., 2012). In some experiments, PBMCs were stimulated once in vitro with peptide prior to analysis. In some experiments, 104 autologous DCs were added to the wells as antigen presenting cells. The spots were counted using the ImmunoSpot Series 2.0 Analyzer (C.T.L.—Europe, Bonn, Germany). In some experiments, CD4+ cells were isolated by EasySep human CD4^+ T cell enrichment kit (Stem Cell technologies, Grenoble, France) following manufacturers' instructions. This yielded highly pure cultures (>97% CD4+), which was confirmed by staining with surface antibodies as described below for intracellular cytokine staining (ICS) and flow cytometry (FCM).
PBMCs were placed in the bottom of ELISPOT plate (nitrocellulose bottomed 96-well plates by MultiScreen MAIP N45; Millipore) pre-coated with IFN-γ capture Ab (Mabtech) and the peptides were added at 5 μg/ml. PBMCs from each patient were set up in duplicates or triplicates for peptide and control stimulations. Cells were incubated in ELISPOT plates in the presence of an antigen for 14-16 hours after which they are washed off and secondary biotinylated Ab (Mabtech) was added. After 2h incubation unbound secondary antibody was washed off and streptavidin conjugated alkaline phosphatase (AP) (Mabtech) was added for 1 h. Next, unbound conjugated enzyme is washed off and the assay is developed by adding BCIP/NBT substrate (Mabtech). Developed ELISPOT plates were analysed on CTL ImmunoSpot S6 Ultimate-V analyzer using Immunospot software v5.1. Responses were calculated as the difference between average numbers of spots in wells stimulated with pCCL223-12 peptide and control wells. […]

[5] = test system: PBMCs from a melanoma patient; assay: HLA-A2/peptide tetramer staining; format: cell-based, human
Experimental: as §2
HLA-A2 multimers were produced in house by using a previously described MHC peptide exchange technology (15).

Sequence: MATLRVPLLVALVLLAVAIQTS (listed as Mus musculus) [mCCL22long, long murine CCL22 peptide]
- IFNγ ELISPOT immune response of splenocytes of vaccinated mice (C57BL/6 mice): increased immune response

Sequence: MDRLQTALLVVLVLLAVALQAT (listed as Homo sapiens) [CCL22long, Polypeptide fragment of human CCL22]
- lysis of peptide-pulsed T2 cells by CCL22-specific T cells (T2 cells): recognized and killed
- lysis of peptide-pulsed T2 cells by CCL22-specific T cells (T2 cells; listed as CCL22-signal peptide): lysed

Sequence: RLQTALLVV (listed as Homo sapiens) [pCCL223-11, Polypeptide fragment of human CCL22]
- T-cell avidity of pCCL223-12-specific T cells, peptide titration (T2 cells): reacted towards both peptides
- T-cell avidity of pCCL223-12-specific T cells, peptide titration (T2 cells; listed as CCL22-2): cross-react

Sequence: RLQTALLVVL (listed as Homo sapiens) [pCCL223-12, Polypeptide fragment of human CCL22]
- CD4+ T cell response (IFNγ, TNFα) to peptide stimulation [1]: no response detected
- CD4+ T cell response (IFNγ, TNFα) to peptide stimulation ([1]; listed as CCL22-3): no reactivity
- CD8+ T cell response (IFNγ, TNFα) to peptide stimulation ([1]; listed as CCL22-3): CD8+ (Left) and not CD4+ (Right) T cells react; also recorded: secreting IFN-γ and TNF-α
- CD8+ cells secreting IFNγ and TNFα in response to peptide stimulation ([1]; tetramer-isolated, expanded culture): Around 30%
- CCL22 concentration in supernatants compared to HIV control peptide (CCL22 [2]; PBMCs from 11 healthy donors, one week after stimulation): significantly decreased
- overall decrease in CCL22 concentration compared to HIV control peptide (CCL22 [2]; PBMCs from 13 cancer patients, one week after stimulation): did not reach significance
- CCL22 concentration compared to HIV control peptide (CCL22 [2]; PBMCs from cancer patients with high CCL22 expression (≥5000 pg/mL)): significant decrease
- CCL22 expression in supernatant compared to HIV control peptide (CCL22 [2]; donor PBMCs with ELISPOT response, over one week, IL-2): lower
- recognition of HLA-A2-transfected K562 cells pulsed with peptide (K562-A2 cells): only recognized
- recognition of HLA-A2-transfected K562 cells pulsed with peptide (K562-A2 cells; listed as CCL22-3): recognized and killed
- lysis of peptide-pulsed T2 cells by CCL22-specific T cells (T2 cells): able to lyse
- T-cell avidity of pCCL223-12-specific T cells, peptide titration (T2 cells): highest avidity
- T-cell avidity of pCCL223-12-specific T cells, peptide titration (T2 cells; listed as CCL22-3): recognized better
- lysis of peptide-pulsed T2 cells by CCL22-specific T cells (T2 cells; listed as CCL22-3): lysed; also recorded: specifically recognize and lyse
- recognition of non-transfected K562 cells pulsed with peptide (HLA-negative K562 cells): not recognized
- overall CCL22 levels in supernatants (CCL22 [3]): decrease
- overall CCL22 levels in supernatants (CCL22 [3]; listed as CCL22-3): affected
- IL-10 in the supernatants after stimulation (PBMCs): almost undetectable
- IL-6 level compared to HIV control peptide (PBMCs; PBMCs from 11 cancer patients, one week of stimulation): significant increase
- cultures with decreasing TNFα levels (PBMCs; PBMCs from cancer patients, one week of stimulation): 7 out of 11
- cultures with decreasing TNFα levels (PBMCs; PBMCs from healthy donors, one week of stimulation): 7 out of 10
- IFN-γ concentration versus control peptide (PBMCs; culture supernatants): no unambiguous differences
- IL-1β concentration versus control peptide (PBMCs; culture supernatants): no unambiguous differences
- IL-10 concentration versus control peptide (PBMCs; culture supernatants): no unambiguous differences
- IL-1 induced after stimulation (PBMCs; data not shown): only one cancer patient and two healthy donors
- spontaneous specific T-cell reactivity, IFN-γ ELISPOT ([4]; PBMCs from 13 cancer patients and 10 healthy individuals, peptide stimulation for two weeks with low-dose IL-2): detected in a number of melanoma patients and healthy donors
- overall ELISPOT responses, healthy donors versus cancer patients ([4]; peptide stimulation for two weeks with low-dose IL-2): similar
- specific responses by IFNγ ELISPOT ([4]; screen of PBMCs from cancer patients): Indications for specific responses
- tetramer-positive cells ([5]; after five stimulations with peptide-pulsed autologous DCs or PBMCs): small but distinct population of tetramer-positive cells
- tetramer-positive cells ([5]; after tetramer isolation and expansion): clear population

Sequence: VALVLLAVAI (listed as Mus musculus) [mCCL22short, short murine CCL22 peptide; part of mCCL22Long]
- IFNγ ELISPOT immune response of splenocytes of vaccinated mice (C57BL/6 mice): increased immune response
